The subject of this experiment is CD2F1 mice, L1210 leukemia ip, survival T/C. As to the kind of experiment: NCI In Vivo Anticancer Drug Screen. Data for tumor model L1210 Leukemia (intraperitoneal) in CD2F1 (CDF1) mice. Conditions: higher = longer survival. A digest of the protocol:
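Transplantable tumor in mice; compound-treated vs vehicle-treated groups. Read-out = treated/control ratio of the measured endpoint.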

The mark [1] stands for this setting: endpoint: median survival time, dose: 25.0 mg/kg/injection, schedule: Q01DX009 (ip), vehicle: Klucel (hydroxypropylcellulose) (HPC).
Where [2] appears, read: endpoint: median survival time, dose: 50.0 mg/kg/injection, schedule: Q01DX009 (ip), vehicle: Klucel (hydroxypropylcellulose) (HPC).
The mark [3] stands for this setting: endpoint: median survival time, dose: 100.0 mg/kg/injection, schedule: Q01DX009 (ip), vehicle: Klucel (hydroxypropylcellulose) (HPC).
Setting [4] is: endpoint: median survival time, dose: 200.0 mg/kg/injection, schedule: Q01DX009 (ip), vehicle: Klucel (hydroxypropylcellulose) (HPC).
The mark [5] stands for this setting: endpoint: mean survival time, dose: 100.0 mg/kg/injection, schedule: Q01DX009 (ip), vehicle: saline with Tween-80.
Setting [6] is: endpoint: mean survival time, dose: 200.0 mg/kg/injection, schedule: Q01DX009 (ip), vehicle: saline with Tween-80.
The mark [7] stands for this setting: endpoint: mean survival time, dose: 400.0 mg/kg/injection, schedule: Q01DX009 (ip), vehicle: saline with Tween-80.
Where [8] appears, read: endpoint: mean survival time, dose: 100.0 mg/kg/injection, schedule: Q04DX002 (ip), vehicle: saline with Tween-80.
Setting [9] is: endpoint: mean survival time, dose: 200.0 mg/kg/injection, schedule: Q04DX002 (ip), vehicle: saline with Tween-80.
Where [10] appears, read: endpoint: mean survival time, dose: 400.0 mg/kg/injection, schedule: Q04DX002 (ip), vehicle: saline with Tween-80.
Where [11] appears, read: endpoint: mean survival time, dose: 100.0 mg/kg/injection, schedule: Q04DX003 (ip), vehicle: saline with Tween-80.
The mark [12] stands for this setting: endpoint: mean survival time, dose: 200.0 mg/kg/injection, schedule: Q04DX003 (ip), vehicle: saline with Tween-80.
The mark [13] stands for this setting: endpoint: mean survival time, dose: 400.0 mg/kg/injection, schedule: Q04DX003 (ip), vehicle: saline with Tween-80.
The mark [14] stands for this setting: endpoint: mean survival time, dose: 100.0 mg/kg/injection, schedule: Q01DX001 (ip), vehicle: saline.
[15] abbreviates: endpoint: mean survival time, dose: 200.0 mg/kg/injection, schedule: Q01DX001 (ip), vehicle: saline.
The mark [16] stands for this setting: endpoint: mean survival time, dose: 400.0 mg/kg/injection, schedule: Q01DX001 (ip), vehicle: saline.

Several values for one entry are separate records, joined by “and”; a condition that tells them apart may be missing. Equal entries are not always repeated. Toxic doses and inconclusive results are not listed.

As for `OCc1ccc2c(n1)COC(c1ccccc1)O2` (centres undefined), the T/C is, setting by setting: (endpoint: mean survival time, dose: 100.0 mg/kg/injection, schedule: Q04DX002 (ip), vehicle: Klucel (hydroxypropylcellulose) (HPC)) 102 % of control; (endpoint: mean survival time, dose: 200.0 mg/kg/injection, schedule: Q04DX002 (ip), vehicle: Klucel (hydroxypropylcellulose) (HPC)) 94 % of control; (endpoint: mean survival time, dose: 400.0 mg/kg/injection, schedule: Q04DX002 (ip), vehicle: Klucel (hydroxypropylcellulose) (HPC)) 94 % of control.

In the case of `O=C(O)c1cc(Cc2ccc(O)c(C(=O)O)c2)ccc1O` (tested in a mixture with another compound), the T/C was 101 % of control (endpoint: median survival time, dose: 6.25 mg/kg/injection, schedule: Q01DX009 (ip), vehicle: Klucel (hydroxypropylcellulose) (HPC)); 104 % of control (endpoint: median survival time, dose: 12.5 mg/kg/injection, schedule: Q01DX009 (ip), vehicle: Klucel (hydroxypropylcellulose) (HPC)); 104 % of control under setting [1]; 97 % of control under setting [2]; 96 % of control under setting [3]; 89 % of control under setting [4].

As to `O=C(CC(c1ccc(Cl)cc1)P(=O)(c1ccccc1)c1ccccc1)c1ccccc1` (centres undefined), the T/C runs as follows: under setting [5], 90 % of control; under setting [6], 98 % of control; under setting [7], 97 % of control.

As to `COc1ccc(C(CC(=O)c2ccccc2)[Se]c2ccccc2)cc1` (centres undefined), the T/C was 101 % of control under setting [1], 100 % of control under setting [2], 101 % of control under setting [3] and 94 % of control under setting [4].

`CC(Nc1ccccc1)C(=O)N1CCC(Nc2ccccc2)CC1` (centres undefined): the T/C under setting [8] is 94 % of control, the T/C under setting [9] is 94 % of control and the T/C under setting [10] was 90 % of control.

For `Cn1nc(NC(=O)C(F)(F)F)c2ncc(-c3ccccc3)nc21`, the T/C under setting [11] is 91 % of control, the T/C under setting [12] was 87 % of control and the T/C under setting [13] is 91 % of control.

For the molecule `CC(NC(=O)CN)C(=O)O` (centres undefined), the T/C is 100 % of control under setting [14], 100 % of control under setting [15] and 104 % of control under setting [16].

Turning to `C(=N\C(/N=C/c1ccccc1)c1ccccc1)/c1ccccc1`, the T/C is 100 % of control under setting [14], 103 % of control under setting [15] and 106 % of control under setting [16].

As for `CC(C)CCC(=O)/C=C\c1ccccc1`, the T/C runs as follows: (endpoint: mean survival time, dose: 50.0 mg/kg/injection, schedule: Q04DX002 (ip), vehicle: saline with Tween-80) 104 % of control; under setting [8], 96 % of control; under setting [9], 86 % of control; under setting [10], 86 % of control.

For `CC1CC(C)(C)CC2(C1)OCC(CCl)O2` (centres undefined), the T/C is, setting by setting: (endpoint: mean survival time, dose: 100.0 mg/kg/injection, schedule: Q01DX009 (ip), vehicle: saline sonified) 95 % of control; (endpoint: mean survival time, dose: 200.0 mg/kg/injection, schedule: Q01DX009 (ip), vehicle: saline sonified) 87 % of control; (endpoint: mean survival time, dose: 400.0 mg/kg/injection, schedule: Q01DX009 (ip), vehicle: saline sonified) 106 % of control.

Consider `O=C1C=C(N2CCOCC2)c2ccccc2C1=O`, for which the T/C (endpoint: mean survival time, dose: 75.0 mg/kg/injection, schedule: Q01DX001 (ip), vehicle: saline) was 100 % of control and the T/C (endpoint: mean survival time, dose: 150.0 mg/kg/injection, schedule: Q01DX001 (ip), vehicle: saline) is 94 % of control.

Consider `CC(C)C(Br)C(Br)c1ccccc1` (centres undefined), for which the T/C is, setting by setting: (endpoint: mean survival time, dose: 100.0 mg/kg/injection, schedule: Q04DX003 (ip), vehicle: saline) 96 % of control; (endpoint: mean survival time, dose: 200.0 mg/kg/injection, schedule: Q04DX003 (ip), vehicle: saline) 102 % of control.

`O=C1c2ccccc2C(=O)c2c(O)c(N3CCC(C(=O)O)CC3)cc(O)c21`: the T/C runs as follows: (endpoint: mean survival time, dose: 12.5 mg/kg/injection, schedule: Q01DX005 (ip), vehicle: other) 106 % of control; (endpoint: mean survival time, dose: 25.0 mg/kg/injection, schedule: Q01DX005 (ip), vehicle: other) 104 % of control; (endpoint: mean survival time, dose: 50.0 mg/kg/injection, schedule: Q01DX005 (ip), vehicle: other) 106 % of control; (endpoint: mean survival time, dose: 100.0 mg/kg/injection, schedule: Q01DX005 (ip), vehicle: other) 96 % of control; (endpoint: mean survival time, dose: 200.0 mg/kg/injection, schedule: Q01DX005 (ip), vehicle: other) 98 % of control.

With `CC(=O)O/C=C/C=C/C=N/c1nc2c(c(=O)n(C)c(=O)n2C)n1C`, the T/C by setting is: (endpoint: mean survival time, dose: 12.5 mg/kg/injection, schedule: Q01DX005 (ip), vehicle: distilled water + Tween-80) 105 % of control; (endpoint: mean survival time, dose: 25.0 mg/kg/injection, schedule: Q01DX005 (ip), vehicle: distilled water + Tween-80) 91 % of control; (endpoint: mean survival time, dose: 50.0 mg/kg/injection, schedule: Q01DX005 (ip), vehicle: distilled water + Tween-80) 94 % of control; (endpoint: mean survival time, dose: 100.0 mg/kg/injection, schedule: Q01DX005 (ip), vehicle: distilled water + Tween-80) 103 % of control; (endpoint: mean survival time, dose: 200.0 mg/kg/injection, schedule: Q01DX005 (ip), vehicle: distilled water + Tween-80) 97 % of control.

With `CN(CN1C(=O)CCC1=O)CN1C(=O)CCC1=O`, the T/C is 105 % of control (endpoint: median survival time, dose: 50.0 mg/kg/injection, schedule: Q01DX005 (ip), vehicle: saline); 113 % of control (endpoint: median survival time, dose: 100.0 mg/kg/injection, schedule: Q01DX005 (ip), vehicle: saline); 121 % of control (endpoint: median survival time, dose: 200.0 mg/kg/injection, schedule: Q01DX005 (ip), vehicle: saline); 121 % of control (endpoint: median survival time, dose: 400.0 mg/kg/injection, schedule: Q01DX005 (ip), vehicle: saline).

Turning to `Nc1nc(N)nc(C(=O)CCC(=O)O)n1`, the T/C reads like this: (endpoint: mean survival time, dose: 50.0 mg/kg/injection, schedule: Q01DX009 (ip), vehicle: saline with Tween-80) 95 % of control; under setting [5], 95 % of control; under setting [6], 95 % of control.

Turning to `O=C(NC(O)C(Cl)(Cl)Cl)C(Cl)(Cl)Cl` (centres undefined), the T/C runs as follows: under setting [5], 89 % of control; under setting [11], 104 % of control; under setting [6], 100 % of control; under setting [12], 105 % of control; under setting [7], 107 % of control; under setting [13], 104 % of control.

Take `Cn1cnc([N+](=O)[O-])c1[Se]c1nc(N)nc2c1ncn2C1OC(CO)C(O)C1O` (centres undefined): the T/C by setting is: (endpoint: mean survival time, dose: 2.0 mg/kg/injection, schedule: Q01DX009 (ip), vehicle: distilled water + Tween-80) 114 % of control; (endpoint: mean survival time, dose: 4.0 mg/kg/injection, schedule: Q01DX009 (ip), vehicle: distilled water + Tween-80) 112 % of control; (endpoint: mean survival time, dose: 8.0 mg/kg/injection, schedule: Q01DX009 (ip), vehicle: distilled water + Tween-80) 108 % of control and 110 % of control; (endpoint: mean survival time, dose: 12.5 mg/kg/injection, schedule: Q01DX005 (ip), vehicle: saline) 166 % of control; (endpoint: mean survival time, dose: 25.0 mg/kg/injection, schedule: Q01DX005 (ip), vehicle: saline) 175 % of control; (endpoint: mean survival time, dose: 50.0 mg/kg/injection, schedule: Q01DX005 (ip), vehicle: saline) 176 % of control. Also, where the note is “endpoint: mean survival time, dose: 64.0 mg/kg/injection, schedule: Q01DX009 (ip), vehicle: distilled water + Tween-80”, the T/C is 98 % of control.

As for `CC(=O)N(C)N=Nc1ccc(C)cc1`, the T/C (endpoint: mean survival time, dose: 88.0 mg/kg/injection, schedule: Q04DX003 (ip), vehicle: other) is 114 % of control and the T/C (endpoint: mean survival time, dose: 200.0 mg/kg/injection, schedule: Q04DX003 (ip), vehicle: other) was 121 % of control.

As to `CNC(=S)SC`, the T/C was 98 % of control (endpoint: mean survival time, dose: 50.0 mg/kg/injection, schedule: Q01DX001 (ip), vehicle: saline); 102 % of control under setting [14]; 104 % of control under setting [15].

On to `O=C(CO)c1ccccc1`, for which the T/C is 97 % of control under setting [11], 92 % of control under setting [12] and 92 % of control under setting [13].

With `COc1c(NC(=O)Nc2cccc(Cl)c2)cccc1[N+](=O)[O-]`, the T/C under setting [8] was 92 % of control and the T/C under setting [9] is 88 % of control.

For the origin of these results see PubChem BioAssay AID256 (DTP/NCI, 2004).
